Columns and labels:
BE2-M17 (Neuroblastoma) = test: Bliss excess, mean over the matrix (fraction); higher = more synergy
How it was run: (§1)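 Cell lines in DMEM/F12 or RPMI with 10% FBS were plated in 1536-well plates, held 24 hours at 37°C, 5% CO2, then given two-drug dose matrices for 72 hours (DMSO typically 0.2%). Viability was read by CellTiter-Glo 2.0 luminescence and scaled as inhibition from 0 (vehicle wells) to 1 (blank wells). Combination Emax is the second-highest inhibition in the matrix; Bliss excess is observed combination effect minus expected EA + EB − EA·EB, EA and EB being single-agent effects.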

[1] = system: BFTC-909 (Kidney Carcinoma); test: as above
How it was run: as §1

BPH-1 (Non-Cancerous) = test: as above
How it was run: as §1

[2] = system: Detroit562 (Head and Neck Carcinoma); test: as above
How it was run: as §1

[3] = system: ESS-1 (Other Solid Carcinomas); test: as above
How it was run: as §1

[4] = system: HeLa (Cervical Carcinoma); test: as above
How it was run: as §1

[5] = system: HuCCT1 (Biliary Tract Carcinoma); test: as above
How it was run: as §1

[6] = system: HuH-7 (Hepatocellular Carcinoma); test: as above
How it was run: as §1

[7] = system: KMRC-20 (Kidney Carcinoma); test: as above
How it was run: as §1

[8] = system: L-428 (Hodgkin's Lymphoma); test: as above
How it was run: as §1

MPP-89 (Mesothelioma) = test: as above
How it was run: as §1

[9] = system: NCI-H524 (Small Cell Lung Carcinoma); test: as above
How it was run: as §1

[10] = system: SAS (Oral Cavity Carcinoma); test: as above
How it was run: as §1

[11] = system: SNU-16 (Gastric Carcinoma); test: as above
How it was run: as §1

[12] = system: TGBC1TKB (Biliary Tract Carcinoma); test: as above
How it was run: as §1

[13] = system: BE-13 (T-Lymphoblastic Leukemia); test: combination Emax (second highest fraction inhibited in the dose matrix, 72 h); higher = more inhibition; extreme values may be limits of the assay
How it was run: as §1

[14] = system: CAL-33 (Oral Cavity Carcinoma); test: as above
How it was run: as §1

KS-1 (Glioblastoma) = test: as above
How it was run: as §1

[15] = system: OE21 (Esophageal Squamous Cell Carcinoma); test: as above
How it was run: as §1

[16] = system: TGBC1TKB (Biliary Tract Carcinoma); test: as above
How it was run: as §1
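Throughout, for Bliss excess, mean over the matrix: after 72 h of two-drug dosing.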

Structure (SMILES) | Bliss excess (BE2-M17 (Neuroblastoma)) | Bliss excess [1] | Bliss excess (BPH-1 (Non-Cancerous)) | Bliss excess [2] | Bliss excess [3] | Bliss excess [4] | Bliss excess [5] | Bliss excess [6] | Bliss excess [7] | Bliss excess [8] | Bliss excess (MPP-89 (Mesothelioma)) | Bliss excess [9] | Bliss excess [10] | Bliss excess [11] | Bliss excess [12] | combination Emax [13] | combination Emax [14] | combination Emax (KS-1 (Glioblastoma)) | combination Emax [15] | combination Emax [16]
CC1(C)CCC(CN2CCN(c3ccc(C(=O)NS(=O)(=O)c4ccc(NCC5CCOCC5)c([N+](=O)[O-])c4)c(Oc4cnc5[nH]ccc5c4)c3)CC2)=C(c2ccc(Cl)cc2)C1 [Venetoclax] + C=CCn1c(=O)c2cnc(Nc3ccc(N4CCN(C)CC4)cc3)nc2n1-c1cccc(C(C)(C)O)n1 [AZD1775] (first compound max 1 µM, partner max 1 µM) | -0.0256 | -0.0556 | -0.0548 | -0.0478 | 0.0835 | -0.0459 | -0.0281 | -0.0247 | -0.044 | -0.0298 | 0.1 | 0.0089 | -0.0073 | -0.0478 | -0.039 | 1 | 0.761 | 0.504 | 0.636 | 0.35
CC1(C)CCC(CN2CCN(c3ccc(C(=O)NS(=O)(=O)c4ccc(NCC5CCOCC5)c([N+](=O)[O-])c4)c(Oc4cnc5[nH]ccc5c4)c3)CC2)=C(c2ccc(Cl)cc2)C1 [Venetoclax] + CCN(CCO)CCCOc1ccc2c(Nc3cc(CC(=O)Nc4cccc(F)c4)[nH]n3)ncnc2c1 [AZD2811] (first compound max 1 µM, 7x7, partner max 1 µM) | 0.107 | -0.0289 | -0.0198 | -0.013 | 0.0506 | 0.0336 | -0.0062 | -0.0133 | -0.0273 | 0.0178 | -0.0093 | -0.0074 | 0.009 | 0.0202 | -0.0225 | 0.881 | 0.594 | 0.341 | 0.159 | 0.208
CC1(C)CCC(CN2CCN(c3ccc(C(=O)NS(=O)(=O)c4ccc(NCC5CCOCC5)c([N+](=O)[O-])c4)c(Oc4cnc5[nH]ccc5c4)c3)CC2)=C(c2ccc(Cl)cc2)C1 [Venetoclax] + CN(C)CCCOc1ccc(-c2ccc3ncc4c(c3c2)n(C2CCOCC2)c(=O)n4C)cn1 [AZD0156] (first compound max 1 µM, 7x7, partner max 1 µM) | 0.0093 | 0.0072 | -0.0214 | -0.0214 | -0.0515 | -0.0178 | -0.002 | 0.0028 | -0.0023 | -0.0057 | -0.0182 | 0.0028 | -0.033 | -0.0015 | -0.0186 | 0.612 | 0.178 | 0.224 | 0.162 | 0.244
CC1(C)CCC(CN2CCN(c3ccc(C(=O)NS(=O)(=O)c4ccc(NCC5CCOCC5)c([N+](=O)[O-])c4)c(Oc4cnc5[nH]ccc5c4)c3)CC2)=C(c2ccc(Cl)cc2)C1 [Venetoclax] + COc1cc(Nc2ncc3c(n2)-c2ccc(Cl)cc2C(c2c(F)cccc2OC)=NC3)ccc1C(=O)O [Alisertib] (first compound max 1 µM, 7x7, partner max 10 µM) | 0.215 | 0.0116 | -0.0459 | -0.043 | 0.0748 | 0.0517 | -0.0148 | -0.0508 | 0.0226 | 0.0501 | -0.0556 | -0.0902 | -0.0842 | -0.052 | -0.0367 | 0.918 | 0.714 | 0.635 | 0.382 | 0.403
CC1(C)CCC(CN2CCN(c3ccc(C(=O)NS(=O)(=O)c4ccc(NCC5CCOCC5)c([N+](=O)[O-])c4)c(Oc4cnc5[nH]ccc5c4)c3)CC2)=C(c2ccc(Cl)cc2)C1 [Venetoclax] + C[C@@H]1COCCN1C2=NC(=NC(=C2)C3(CC3)[S@](=N)(=O)C)C4=C5C=CNC5=NC=C4 [AZD6738] (first compound max 1 µM, 7x7, partner max 10 µM) | -0.0661 | -0.0384 | -0.0336 | -0.0505 | 0.0147 | -0.0688 | -0.012 | -0.0181 | -0.0047 | 0.0164 | -0.0226 | -0.0453 | 0.0194 | -0.0218 | -0.0517 | 0.936 | 0.862 | 0.57 | 0.828 | 0.46
CC1(C)CCC(CN2CCN(c3ccc(C(=O)NS(=O)(=O)c4ccc(NCC5CCOCC5)c([N+](=O)[O-])c4)c(Oc4cnc5[nH]ccc5c4)c3)CC2)=C(c2ccc(Cl)cc2)C1 [Venetoclax] + C[C@@H](Nc1cc(F)cc(F)c1)c1cc(C(=O)N(C)C)cc2c(=O)cc(N3CCOCC3)oc12 [AZD8186] (first compound max 1 µM, 7x7, partner max 3 µM) | -0.0069 | 0.0073 | -0.0385 | -0.0336 | -0.0118 | -0.0326 | -0.0383 | -0.0304 | -0.0195 | 0.0037 | -0.0096 | -0.009 | -0.0332 | 0.009 | -0.0558 | 0.375 | 0.149 | 0.341 | 0.109 | 0.526
CC1(C)CCC(CN2CCN(c3ccc(C(=O)NS(=O)(=O)c4ccc(NCC5CCOCC5)c([N+](=O)[O-])c4)c(Oc4cnc5[nH]ccc5c4)c3)CC2)=C(c2ccc(Cl)cc2)C1 [Venetoclax] + Cc1cc2ncnn2cc1Nc1ncc2c(n1)n(C1CCOCC1)c(=O)n2C [AZD7648] (first compound max 1 µM, 7x7, partner max 10 µM) | 0.0002 | 0.0017 | -0.0517 | -0.0205 | -0.0501 | -0.0354 | -0.0609 | -0.022 | 0.0019 | -0.0548 | 0.0173 | -0.005 | -0.0055 | -0.0396 | -0.043 | 0.529 | 0.329 | 0.294 | 0.206 | 0.297
CC1(C)CCC(CN2CCN(c3ccc(C(=O)NS(=O)(=O)c4ccc(NCC5CCOCC5)c([N+](=O)[O-])c4)c(Oc4cnc5[nH]ccc5c4)c3)CC2)=C(c2ccc(Cl)cc2)C1 [Venetoclax] + Cn1cnc2c(F)c(Nc3ccc(Br)cc3Cl)c(C(=O)NOCCO)cc21 [Selumetinib] (first compound max 1 µM, 7x7, partner max 3 µM) | -0.0116 | -0.0315 | 0.0055 | -0.0516 | -0.0393 | -0.0369 | -0.0128 | -0.055 | 0.0022 | -0.0042 | -0.0235 | -0.0392 | -0.0533 | -0.0052 | -0.0542 | 0.461 | 0.266 | 0.261 | 0.337 | 0.167

Reference: the supplement of paper PMC11061612
